These results are taken from publication PMC4648050, “Discovery of Inhibitors of Trypanosoma brucei by Phenotypic Screening of a Focused Protein Kinase Library” (Chemmedchem, 2015).

Common to all, as to format: biochemical, human/mammalian
What all share (conditions): compound at 10 μM, read-out: % of activity respect of the control

One experiment concerns the target JNK1 (Homo sapiens, UniProt P45983). The experiment in a line: Kinase panel: JNK1. As to the method: (§1) The DDU kinase-focused compound set contains lead-like scaffolds that are designed to target protein kinases; they have kinase hinge binding motifs. Four of the 1H-imidazopyrazinones were screened against a human/mammalian kinase panel at the University of Dundee (http://www.kinase-screen.mrc.ac.uk) at a concentration of 10 μM. At the time of testing the panel contained 79 mammalian kinases selected to provide a broad coverage of the mammalian kinome (∼500 kinases in the human genome).[3] None of the compounds were active against any of the kinases at 10 μM.

A further experiment has as its target T1, PDK1 (Homo sapiens, UniProt O15530).
T1 sequence (O15530 1-556): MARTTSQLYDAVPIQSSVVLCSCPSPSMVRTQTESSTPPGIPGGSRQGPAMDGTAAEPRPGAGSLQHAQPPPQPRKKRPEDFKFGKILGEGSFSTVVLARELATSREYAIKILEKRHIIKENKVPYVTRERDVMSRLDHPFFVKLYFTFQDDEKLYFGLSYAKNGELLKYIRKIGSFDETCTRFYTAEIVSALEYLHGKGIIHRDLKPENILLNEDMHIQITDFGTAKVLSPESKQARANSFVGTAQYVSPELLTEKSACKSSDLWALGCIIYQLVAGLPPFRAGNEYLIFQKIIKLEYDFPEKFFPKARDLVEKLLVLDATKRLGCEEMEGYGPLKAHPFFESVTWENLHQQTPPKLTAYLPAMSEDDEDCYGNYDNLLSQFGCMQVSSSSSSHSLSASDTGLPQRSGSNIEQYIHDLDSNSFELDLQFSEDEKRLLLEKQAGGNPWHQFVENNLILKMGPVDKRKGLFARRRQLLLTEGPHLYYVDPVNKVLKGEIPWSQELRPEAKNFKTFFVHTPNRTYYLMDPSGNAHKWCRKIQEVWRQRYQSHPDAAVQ
The experiment in a line: Kinase panel: PDK1. As to the method: as §1

For another experiment, the target named is T2, PKD1 (Homo sapiens, UniProt Q15139).
T2 sequence (Q15139 1-912): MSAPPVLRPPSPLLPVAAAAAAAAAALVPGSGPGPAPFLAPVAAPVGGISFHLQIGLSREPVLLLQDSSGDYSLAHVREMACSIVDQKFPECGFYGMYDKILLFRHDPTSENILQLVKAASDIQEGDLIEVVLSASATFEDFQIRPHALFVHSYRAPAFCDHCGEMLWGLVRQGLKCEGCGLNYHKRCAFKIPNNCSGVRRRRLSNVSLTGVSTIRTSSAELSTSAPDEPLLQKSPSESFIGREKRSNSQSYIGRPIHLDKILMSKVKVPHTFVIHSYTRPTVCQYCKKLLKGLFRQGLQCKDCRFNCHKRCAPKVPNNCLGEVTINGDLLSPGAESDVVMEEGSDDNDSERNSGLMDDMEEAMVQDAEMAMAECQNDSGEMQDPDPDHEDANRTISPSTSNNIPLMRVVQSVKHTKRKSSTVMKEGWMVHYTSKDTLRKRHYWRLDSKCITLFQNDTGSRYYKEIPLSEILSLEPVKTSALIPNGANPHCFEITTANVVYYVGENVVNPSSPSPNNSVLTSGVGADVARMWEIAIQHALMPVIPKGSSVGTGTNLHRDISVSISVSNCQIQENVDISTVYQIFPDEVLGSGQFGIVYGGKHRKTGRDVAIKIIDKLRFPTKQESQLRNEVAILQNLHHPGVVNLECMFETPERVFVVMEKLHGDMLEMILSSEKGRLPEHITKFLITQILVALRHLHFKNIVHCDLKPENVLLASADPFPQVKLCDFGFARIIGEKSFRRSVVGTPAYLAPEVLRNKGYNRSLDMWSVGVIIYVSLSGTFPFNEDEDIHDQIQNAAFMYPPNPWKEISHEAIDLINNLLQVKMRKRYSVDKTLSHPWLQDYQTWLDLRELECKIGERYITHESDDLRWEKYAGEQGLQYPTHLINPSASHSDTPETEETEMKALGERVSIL
The experiment in a line: Kinase panel: PKD1. As to the method:
as §1

The next experiment concerns the target PLK1 (Okadaic Acid) (Homo sapiens, UniProt P53350). The experiment in a line: Kinase panel: PLK1 (Okadaic Acid). As to the method:
as §1

The target of another experiment is T3, DYRK3 (Homo sapiens, UniProt O43781).
T3 sequence (O43781 1-588): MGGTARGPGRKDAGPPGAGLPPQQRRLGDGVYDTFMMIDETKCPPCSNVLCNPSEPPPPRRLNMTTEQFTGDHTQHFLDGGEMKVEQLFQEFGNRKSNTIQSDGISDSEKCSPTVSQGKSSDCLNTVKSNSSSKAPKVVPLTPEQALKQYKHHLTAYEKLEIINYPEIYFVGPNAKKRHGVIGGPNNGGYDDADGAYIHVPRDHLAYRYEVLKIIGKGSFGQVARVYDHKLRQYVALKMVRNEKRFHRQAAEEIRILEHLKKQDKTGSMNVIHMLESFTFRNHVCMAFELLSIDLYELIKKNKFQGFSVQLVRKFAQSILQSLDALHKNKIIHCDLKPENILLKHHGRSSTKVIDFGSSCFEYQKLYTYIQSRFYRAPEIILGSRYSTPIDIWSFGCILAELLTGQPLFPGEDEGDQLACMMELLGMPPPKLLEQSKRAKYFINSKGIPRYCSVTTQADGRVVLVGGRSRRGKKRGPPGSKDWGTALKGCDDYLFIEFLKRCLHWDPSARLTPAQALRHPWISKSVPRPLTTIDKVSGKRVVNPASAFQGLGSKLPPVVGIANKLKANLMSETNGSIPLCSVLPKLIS
The experiment in a line: Kinase panel: DYRK3. As to the method: as §1

The target in a further experiment is PAK6 (Homo sapiens, UniProt Q9NQU5). The experiment in a line: Kinase panel: PAK6. As to the method:
as §1

A further experiment has as its target Src (Homo sapiens, UniProt P12931). The experiment in a line: Kinase panel: Src. The method, then: as §1
The next experiment has as its target CSK (Homo sapiens, UniProt P41240). The experiment in a line: Kinase panel: CSK. As to the method:
as §1

Structures are written as SMILES.

Sequence of PAK6 (Q9NQU5 whole entry): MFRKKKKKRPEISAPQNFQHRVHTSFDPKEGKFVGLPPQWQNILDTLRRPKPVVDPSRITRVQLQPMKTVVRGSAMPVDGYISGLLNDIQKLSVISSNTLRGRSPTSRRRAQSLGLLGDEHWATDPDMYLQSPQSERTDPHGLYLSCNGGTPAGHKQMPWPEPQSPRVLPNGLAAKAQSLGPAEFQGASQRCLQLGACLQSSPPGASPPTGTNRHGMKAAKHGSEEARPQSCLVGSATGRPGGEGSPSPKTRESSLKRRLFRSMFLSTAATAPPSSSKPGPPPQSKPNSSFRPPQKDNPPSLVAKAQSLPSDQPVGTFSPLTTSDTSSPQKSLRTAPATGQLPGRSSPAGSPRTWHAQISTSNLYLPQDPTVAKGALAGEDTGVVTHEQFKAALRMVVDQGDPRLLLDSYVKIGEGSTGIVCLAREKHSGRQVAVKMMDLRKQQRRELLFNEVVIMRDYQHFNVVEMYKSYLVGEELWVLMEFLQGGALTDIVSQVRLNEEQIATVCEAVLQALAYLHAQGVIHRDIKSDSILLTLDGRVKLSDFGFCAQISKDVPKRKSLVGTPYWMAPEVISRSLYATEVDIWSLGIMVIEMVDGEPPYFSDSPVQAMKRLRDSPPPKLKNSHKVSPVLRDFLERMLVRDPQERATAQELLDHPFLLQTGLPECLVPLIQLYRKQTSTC
Sequence of PLK1 (Okadaic Acid) (P53350 whole entry): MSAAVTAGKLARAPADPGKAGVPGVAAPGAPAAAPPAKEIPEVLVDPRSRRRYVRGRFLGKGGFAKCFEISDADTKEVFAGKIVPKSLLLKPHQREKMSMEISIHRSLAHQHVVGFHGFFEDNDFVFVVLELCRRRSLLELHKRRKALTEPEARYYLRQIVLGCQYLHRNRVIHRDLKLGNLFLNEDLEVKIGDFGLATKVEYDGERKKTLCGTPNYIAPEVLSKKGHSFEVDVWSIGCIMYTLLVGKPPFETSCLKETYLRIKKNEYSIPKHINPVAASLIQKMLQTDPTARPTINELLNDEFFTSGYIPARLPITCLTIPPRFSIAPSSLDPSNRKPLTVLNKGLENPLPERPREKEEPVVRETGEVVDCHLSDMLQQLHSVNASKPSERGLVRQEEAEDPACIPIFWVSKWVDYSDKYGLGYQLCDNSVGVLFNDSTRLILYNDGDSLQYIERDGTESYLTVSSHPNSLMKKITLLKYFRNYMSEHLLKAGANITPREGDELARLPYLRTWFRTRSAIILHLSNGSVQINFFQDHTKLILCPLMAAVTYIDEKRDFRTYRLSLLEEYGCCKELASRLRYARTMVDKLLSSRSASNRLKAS
Sequence of CSK (P41240 whole entry): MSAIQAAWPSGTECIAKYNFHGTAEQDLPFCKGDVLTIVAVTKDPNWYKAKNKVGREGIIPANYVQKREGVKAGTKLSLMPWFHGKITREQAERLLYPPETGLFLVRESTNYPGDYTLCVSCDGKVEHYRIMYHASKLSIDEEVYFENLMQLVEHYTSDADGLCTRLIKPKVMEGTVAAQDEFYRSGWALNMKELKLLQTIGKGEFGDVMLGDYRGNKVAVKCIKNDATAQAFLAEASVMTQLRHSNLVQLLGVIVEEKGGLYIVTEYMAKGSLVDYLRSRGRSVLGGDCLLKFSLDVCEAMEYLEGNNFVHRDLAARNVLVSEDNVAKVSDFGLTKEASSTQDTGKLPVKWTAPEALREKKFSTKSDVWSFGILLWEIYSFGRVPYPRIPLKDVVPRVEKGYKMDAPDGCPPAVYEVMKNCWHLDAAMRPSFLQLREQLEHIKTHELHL
Sequence of JNK1 (P45983 whole entry): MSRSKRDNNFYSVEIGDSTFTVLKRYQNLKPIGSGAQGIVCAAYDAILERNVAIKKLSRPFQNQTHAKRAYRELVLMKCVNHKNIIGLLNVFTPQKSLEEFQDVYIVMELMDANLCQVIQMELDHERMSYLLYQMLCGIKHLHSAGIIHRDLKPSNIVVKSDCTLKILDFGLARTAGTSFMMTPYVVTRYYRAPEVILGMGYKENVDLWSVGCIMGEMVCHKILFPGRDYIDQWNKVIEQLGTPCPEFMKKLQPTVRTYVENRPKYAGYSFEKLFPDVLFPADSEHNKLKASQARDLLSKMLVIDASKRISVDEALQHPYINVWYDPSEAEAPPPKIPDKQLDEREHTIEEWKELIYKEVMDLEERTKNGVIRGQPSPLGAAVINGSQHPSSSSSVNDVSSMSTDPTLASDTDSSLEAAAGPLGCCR
Sequence of Src (P12931 whole entry): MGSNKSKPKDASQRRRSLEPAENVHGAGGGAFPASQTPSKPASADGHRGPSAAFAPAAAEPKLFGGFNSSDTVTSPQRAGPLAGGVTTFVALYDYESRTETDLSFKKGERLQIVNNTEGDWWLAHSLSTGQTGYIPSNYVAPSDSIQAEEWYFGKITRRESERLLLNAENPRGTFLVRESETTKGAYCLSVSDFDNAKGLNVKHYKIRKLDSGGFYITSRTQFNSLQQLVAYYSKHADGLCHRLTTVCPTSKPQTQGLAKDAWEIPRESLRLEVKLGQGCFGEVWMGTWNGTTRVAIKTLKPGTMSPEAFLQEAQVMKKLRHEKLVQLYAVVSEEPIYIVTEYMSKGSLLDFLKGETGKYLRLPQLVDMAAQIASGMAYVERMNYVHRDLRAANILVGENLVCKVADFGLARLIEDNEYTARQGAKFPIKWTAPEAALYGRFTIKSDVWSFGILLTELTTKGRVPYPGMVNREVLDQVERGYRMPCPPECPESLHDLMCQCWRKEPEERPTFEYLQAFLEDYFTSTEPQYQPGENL

As to `CC(c1ccccc1)n1c(=O)[nH]c2ncc(-c3ccc(F)cc3)nc21` (stereo not shown) [Compound 1], the remaining activity at 10 µM amounted to 95% on JNK1; 99% on PDK1; 55% on PKD1; 96% on PLK1 (Okadaic Acid); 109% on DYRK3; 89% at PAK6. The remaining activity at 10 µM amounted to 80% on Src and 100% on CSK.
Regarding `O=c1[nH]c2ncc(-c3ccc(F)cc3)nc2n1CC1CC1` [Compound 10], the remaining activity at 10 µM is 100% on JNK1; 96% on PDK1; 40% at PKD1; 109% on PLK1 (Okadaic Acid); 108% on DYRK3; 98% at PAK6. The results for the remaining activity at 10 µM at Src and at CSK were 98% and 93%, respectively.
`O=c1[nH]c2ncc(-c3ccc(F)cc3)nc2n1C1CCCCC1` [Compound 12, 1-Cyclohexyl-6-(4-fluorophenyl)-1H-imidazo[4,5-b]pyrazin-2(3H)-one]: the remaining activity at 10 µM at JNK1 stood at 95%; on PDK1 it was 98%; at PKD1, 60%; at PLK1 (Okadaic Acid), 96%; at DYRK3, 99%; on PAK6, 106%. The remaining activity at 10 µM was 94% on Src and 90% on CSK.
For the compound `C[C@H](c1ccccc1)n1c(=O)[nH]c2ncc(-c3ccccc3)nc21` [Compound 14, (R)-6-Phenyl-1-(1-phenylethyl)-1H-imidazo[4,5-b]pyrazin-2(3H)-one], the remaining activity at 10 µM at JNK1 turned out to be 97%; on PDK1, 91%; on PKD1, 44%; on DYRK3, 100%; at PAK6, 88%; on Src, 70%. Also, the remaining activity at 10 µM on CSK turned out to be 77%.
